What follows are molecules tested on HT-29 cells (assay: HT-29 necroptosis cell viability assay (TNF-α/SMAC mimetic/zVAD-FMK, CellTiter-Glo)). Conditions: Homo sapiens; HT-29 cells stimulated with TNF-α (10 ng/ml), SMAC mimetic (6 μM) and zVAD-FMK (10 μM); 20 hours; CellTiter-Glo ATP luminescence; geometric mean IC50 from 10 points; read-out: Activity.
Assay type: cell-based
Method: Compounds 1-702 of the disclosure were tested for biological activity, following the experimental procedures described below.
• Cell line: HT-29 (ATCC® HTB-38™) • Culture medium: McCOY's 5A, Gibco, Cat No. 16600-082 • FBS, Gibco, Cat No. 10099-141 C • Trypsin: Gibco, Cat No. 25200-056 • DMSO: Sigma, Cat No. 67-68-5, 1L • Assay plate: Corning #3903 • Compound dilution plate: Corning #3357 • Inducers: TNFα, GenScript, Cat No. Z01001-50, • SmacM, Cat. No., HY-15989, MedChemExpress (MCE) • Z_VAD FMK, TargetMol, T6013 • Cell Titer-Glo® Luminescent Cell Viability Assay Kit: Promega, Cat No. G7573 • EnVision: PerkinElmer, 2105-0010
• 1. HT-29 cells were checked every day to make sure that they were healthy and growing as expected. They were subjected to sub-culturing when they were approximately 80% confluent. • 2. The culture medium, McCOY's 5A medium (Gibco, Cat No. 16600-082) with 10% fetal bovine serum or FBS (Gibco, Cat No. 10099-141C), was pre-warmed in a 37° C. water bath for at least 30 min. • 3. When the cells had reached a desired level of confluency of 80% in a T75 flask, the medium was aspirated, and the cells were washed with warm phosphate buffered saline or PBS two times. • 4. 2-3 ml fresh warm trypsin (Gibco, Cat No. 25200-056) solution was added to the washed cells. The flask with the cells was transferred to a 37° C. incubator. • 5. After 5 minutes, the side of the flask was tapped, and the flask was examined under a microscope for detachment of the cells to the flask. If necessary, the cells were kept in the incubator for an additional 5-10 minutes, with occasional tapping, until lifting was complete. • 6. The trypsin reaction was neutralized by transferring 6-9 ml cell culture medium to sterile 15 ml conical tubes, and by centrifuging the cell culture at 300×g for 7 minutes to pellet the cells (supernatant decanted). • 7. The cells were resuspended in fresh cell culture medium and the cell counting was performed using a hemocytometer. • 8. 100 μl of the resuspended cell culture medium containing ˜5,000 cells were transferred into each well of the sterile 96-well cell culture plate (Corning 3903) and cultured overnight at 37° C. with 5% CO2.
• 1. All test compounds were dissolved in DMSO (Dimethyl sulfoxide) to create a 20 mM stock. • 2. 3 μl of 20 mM stock of each compound was mixed with 27 μl DMSO, and the compound solution was further diluted at a titration ratio of 1:3 (20 μl compound solution+40 μl DMSO) till the 10 points end. • 3. All culture medium was removed from assay plates filled with HT-29 cell cultures. The cells were then washed with 1 PBS, and resuspsended in fresh, FBS-free McCOY's 5A medium containing a cocktail of TNF-α (10 ng/ml), a SMAC mimetic compound (6 μM) and Z-VAD-fluoromethylketone or zVAD-FMK (10 μM) to stimulate the HT-29 cells to increase RIP1 kinase levels and necroptosis. • 4. 0.5 μL of the diluted compound solution was added to the corresponding 96-well assay plates. • 5. The assay plates were incubated for 20 hours at 37° C. with 5% CO2.
• 1. The CellTiter-Glo® Luminescent Cell Viability Assay was employed to detect the ATP levels of viable HT-29 cells. • 2. The CellTiter-Glo® buffer and the lyophilized substrate were equilibrated to room temperature prior to use. • 3. The CellTiter-Glo® substrate was resuspended with CellTiter-Glo® buffer, then mixed by gently vortexing to obtain a homogeneous solution. • 4. 20 μl of the enzyme/substrate mixture was transferred by multi-channel pipetting into 96-well assay plates. • 5. The assay plates were placed on an orbital shaker and the contents were shaken for 3 minutes to induce cell lysis. • 6. The assay plates were incubated at room temperature for 10 minutes to stabilize the luminescent signal. • 7. The luminescence signals were read and recorded with EnVision. • 8. The geometric mean IC50 values were calculated from 10 points response dose with duplicates. […]

Compared with `Cc1nc(C(N)=O)sc1Oc1ccc(-n2nc3n(c2=O)C(c2ccccc2)CC3)cc1F` (stereo not shown) [Example 13, 5-(2-fluoro-4-(3-oxo-5-phenyl-6,7-dihydro-3H-pyrrolo[2,1-c][1,2,4]triazol-2(5H)-yl)phenoxy)-4-methylthiazole-2-carboxamide], `COC(=O)c1nc(C)c(Oc2ccc(-n3nc4n(c3=O)C(c3ccccc3)CC4)cc2F)s1` (stereo not shown) [Example 34, methyl 5-(2-fluoro-4-(3-oxo-5-phenyl-6,7-dihydro-3H-pyrrolo[2,1-c][1,2,4]triazol-2(5H)-yl)phenoxy)-4-methylthiazole-2-carboxylate] is higher in IC50: under 100 nM for the first, 100 to 1000 nM for the second.

`Cc1nc(C(=O)N2C[C@@H](C)O[C@@H](C)C2)sc1Oc1ccc(-n2nc3n(c2=O)[C@H](c2ccccc2)CC3)cc1F` [Example 20, (S)-2-(4-((2-((2S,6R)-2,6-dimethylmorpholine-4-carbonyl)-4-methylthiazol-5-yl)oxy)-3-fluorophenyl)-5-phenyl-2,5,6,7-tetrahydro-3H-pyrrolo[2,1-c][1,2,4]triazol-3-one] and `Cc1nc(C(=O)NC2COC2)sc1Oc1ccc(-n2nc3n(c2=O)[C@H](c2ccccc2)CC3)cc1F` [Example 21, (S)-5-(2-fluoro-4-(3-oxo-5-phenyl-6,7-dihydro-3H-pyrrolo[2,1-c][1,2,4]triazol-2(5H)-yl)phenoxy)-4-methyl-N-(oxetan-3-yl)thiazole-2-carboxamide] cannot be ordered by IC50: under 100 nM for the first, under 100 nM for the second.

`Cc1nc(C(=O)N2CCOCC2)sc1Oc1ccc(-n2ncn(Cc3c(F)cccc3F)c2=O)cc1F` [Example 22, 4-(2,6-difluorobenzyl)-2-(3-fluoro-4-((4-methyl-2-(morpholin-4-carbonyl)thiazol-5-yl)oxy)phenyl)-2,4-dihydro-3H-1,2,4-triazol-3-one] and `Cc1nc(C(=O)NCCN2CCOCC2)sc1Oc1ccc(-n2ncn(Cc3c(F)cccc3F)c2=O)cc1F` [Example 24, 5-(4-(4-(2,6-diflurobenzyl)-5-oxo-4,5-dihydro-1H-1,2,4-triazol-1-yl)-2-fluorophenoxy)-4-methyl-N-(2-morpholinoethyl)thiazole-2-carboxamide] cannot be ordered by IC50: under 100 nM for the first, under 100 nM for the second.

`Cc1c(C(N)=O)nn(C)c1Oc1ccc(-n2nc3n(c2=O)C(c2ccccc2)CC3)cc1F` (stereo not shown) [Example 23, 5-(2-fluoro-4-(3-oxo-5-phenyl-6,7-dihydro-3H-pyrrolo[2,1-c][1,2,4]triazol-2(5H)-yl)phenoxy)-1,4-dimethyl-1H-pyrazole-3-carboxamide] and `Cn1nc(C(N)=O)cc1Oc1ccc(-n2nc3n(c2=O)C(c2ccccc2)CC3)cc1F` (stereo not shown) [Example 29, 5-(2-fluoro-4-(3-oxo-5-phenyl-6,7-dihydro-3H-pyrrolo[2,1-c][1,2,4]triazol-2(5H)-yl)phenoxy)-1-methyl-1H-pyrazole-3-carboxamide] cannot be ordered by IC50: under 100 nM for the first, under 100 nM for the second.

`Cc1nc(C(=O)NCCN2CCOCC2)sc1Oc1ccc(-n2ncn(Cc3ccccc3F)c2=O)cc1F` [Example 25, 5-(2-fluoro-4-(4-(2-fluorobenzyl)-5-oxo-4,5-dihydro-1H-1,2,4-triazol-1-yl)phenoxy)-4-methyl-N-(2-morpholinoethyl)thiazole-2-carboxamide] and `Cc1nc(C(=O)NCCN)sc1Oc1ccc(-n2ncn(Cc3ccccc3F)c2=O)cc1F` [Example 27, N-(2-aminoethyl)-5-(2-fluoro-4-(4-(2-fluorobenzyl)-5-oxo-4,5-dihydro-1H-1,2,4-triazol-1-yl)phenoxy)-4-methylthiazole-2-carboxamide] cannot be ordered by IC50: under 100 nM for the first, under 100 nM for the second.

`Cc1cccnc1Cn1cnn(-c2ccc(Oc3sc(C(N)=O)nc3C)c(F)c2)c1=O` [Example 26, 5-(2-fluoro-4-(4-((3-methylpyridin-2-yl)methyl)-5-oxo-4,5-dihydro-1H-1,2,4-triazol-1-yl)phenoxy)-4-methylthiazole-2-carboxamide] and `COC(=O)c1nc(C)c(Oc2ccc(-n3ncn(Cc4ncccc4F)c3=O)cc2F)s1` [Example 32] fall in the same range of IC50: 100 to 1000 nM for the first, 100 to 1000 nM for the second.

`Cc1nc(C(N)=O)sc1Oc1ccc(-n2ncn(Cc3cnccc3Cl)c2=O)cc1F` [Example 31, 5-(4-(4-((4-chloropyridin-3-yl)methyl)-5-oxo-4,5-dihydro-1H-1,2,4-triazol-1-yl)-2-fluorophenoxy)-4-methylthiazole-2-carboxamide] and `Cc1nc(C#N)sc1Oc1ccc(-n2ncn(Cc3cnccc3Cl)c2=O)cc1F` [Example 38, 5-(4-(4-((4-chloropyridin-3-yl)methyl)-5-oxo-4,5-dihydro-1H-1,2,4-triazol-1-yl)-2-fluorophenoxy)-4-methylthiazole-2-carbonitrile] cannot be ordered by IC50: under 100 nM for the first, under 100 nM for the second.

First: COC(=O)c1nc(C)c(Oc2ccc(-n3ncn(Cc4ncccc4C#N)c3=O)cc2F)s1 [Example 33, methyl 5-(4-(4-((3-cyanopyridin-2-yl)methyl)-5-oxo-4,5-dihydro-1H-1,2,4-triazol-1-yl)-2-fluorophenoxy)-4-methylthiazole-2-carboxylate]
Second: Cc1nc(C#N)sc1Oc1ccc(-n2ncn(Cc3ncccc3Cl)c2=O)cc1F [Example 37, 5-(4-(4-((3-chloropyridin-2-yl)methyl)-5-oxo-4,5-dihydro-1H-1,2,4-triazol-1-yl)-2-fluorophenoxy)-4-methylthiazole-2-carbonitrile]
The IC50 of the first is higher: 100 to 1000 nM for the first, under 100 nM for the second. The second is the more potent here.

`Cc1nc(C2CC(C#N)C2)sc1Oc1ccc(-n2ncn(Cc3c(F)cccc3F)c2=O)cc1` (stereo not shown) [Example 39, 3-(5-(4-(4-(2,6-difluorobenzyl)-5-oxo-4,5-dihydro-1H-1,2,4-triazol-1-yl)phenoxy)-4-methylthiazol-2-yl)cyclobutane-1-carbonitrile] and `Cc1nc(C2COC2)sc1Oc1ccc(-n2ncn(Cc3c(F)cccc3F)c2=O)cc1` [Example 42, 4-(2,6-difluorobenzyl)-2-(4-((4-methyl-2-(oxetan-3-yl)thiazol-5-yl)oxy)phenyl)-2,4-dihydro-3H-1,2,4-triazol-3-one] cannot be ordered by IC50: under 100 nM for the first, under 100 nM for the second.

`Cc1nc(C2CC(C#N)C2)sc1Oc1ccc(-n2ncn(Cc3c(F)cccc3F)c2=O)cc1F` (stereo not shown) [Example 40, 3-(5-(4-(4-(2,6-difluorobenzyl)-5-oxo-4,5-dihydro-1H-1,2,4-triazol-1-yl)-2-fluorophenoxy)-4-methylthiazol-2-yl)cyclobutane-1-carbonitrile] and `Cc1nc(C2CN(C(=O)OC(C)(C)C)C2)sc1Oc1ccc(-n2ncn(Cc3c(F)cccc3F)c2=O)cc1F` [Example 41, tert-butyl 3-(5-(4-(4-(2,6-difluorobenzyl)-5-oxo-4,5-dihydro-1H-1,2,4-triazol-1-yl)-2-fluorophenoxy)-4-methylthiazol-2-yl)azetidine-1-carboxylate] cannot be ordered by IC50: under 100 nM for the first, under 100 nM for the second.

`Cc1nc(N2C[C@@H](C#N)[C@@H]2C)sc1Oc1ccc(-n2ncn(Cc3c(F)cccc3F)c2=O)cc1` [Example 43, (2S,3R)-1-(5-(4-(4-(2,6-difluorobenzyl)-5-oxo-4,5-dihydro-1H-1,2,4-triazol-1-yl)phenoxy)-4-methylthiazol-2-yl)-2-methylazetidine-3-carbonitrile] and `Cc1nc(N2C[C@H](C#N)[C@@H]2C)sc1Oc1ccc(-n2ncn(Cc3c(F)cccc3F)c2=O)cc1` [Example 44, (2S,3S)-1-(5-(4-(4-(2,6-difluorobenzyl)-5-oxo-4,5-dihydro-1H-1,2,4-triazol-1-yl)phenoxy)-4-methylthiazol-2-yl)-2-methylazetidine-3-carbonitrile] cannot be ordered by IC50: under 100 nM for the first, under 100 nM for the second.

— patent US20250179061A1 (SIRONAX LTD., priority 2022, published 2025)
